Measurements: patent publication US7399638B2, “Prediction method for lipidosis” (Takeda Pharmaceutical Company Limited, priority 2003, dated 2008)
Where two headings read alike, the source gives them in different places. Marks after values point to notes of the source that are not given here.

What was measured:
Crj: CD(SD)IGS rats [1] = conditions: male, rat, in vivo, 3 days
Procedure: (§1) The following 10 kinds of commercially available drugs were examined as the test compounds for a potential of inducing PLsis by histopathological examination and peripheral blood lymphocyte testing.
(§2) The following experiments were performed using the prematurely autopsied animals.
(§3) The high-dose dosing suspension was diluted about 3 fold and 10 fold with dispersant/solvent to prepare intermediate- and low-dose dosing suspensions. […] [For LD50, the Summary Basis of Approval (FDA) for each drug was referenced to.]
(§4) The animals were examined for mortality, general conditions, body weight, food consumption and the like using PM4800 (Mettler) and EB3200D (Shimadzu Corporation).
Hematological examination was performed for parameters such as RBC count, hematocrit, hemoglobin concentration, mean corpuscular hemoglobin (MCH), mean corpuscular hemoglobin concentration (MCHC), mean corpuscular volume (MCV), platelet count, WBC count, reticulocyte count, differential WBC, and vacuolated lymphocyte ratio (for PLsis-inducing compounds only) using ADVIA120 (Bayer Medical Ltd.) and E-4000 (Sysmex Corporation).

Crj: CD(SD)IGS rats [2] = conditions: rat, in vivo
Procedure: as §1, §2, §3, §4

Crj: CD(SD)IGS rats [3] = experiment: Urinary PAG/hippuric acid ratio by 1H NMR in rats; conditions: rat urine; for PAG + hippuric acid/creatinine / PAG/PAG + hippuric acid / PAG/creatinine (first term of PAG + hippuric acid) / PAG/hippuric acid / hippuric acid/creatinine (second term of PAG + hippuric acid): 3 days, mean n = 3-4
Procedure: During the urine pooling, the collecting vessels were kept in an ice-cooled condition. After the urine collection, the urine was centrifuged at 1500×g for 10 minutes, and not less than 1 mL of the supernatant was collected and stored under freezing (below −70° C.) in a microtube in an ultralow-temperature freezer until the measurement. For the negative control group, 24-hour pooled urine was collected under ice cooling; after the urine collection, the urine was stored at −30° C. until the measurement.
Crj: CD(SD)IGS rats [4] = conditions: rat urine, LC-MS/MS, 60 mg/kg/day by gavage for 7 days
Procedure: During that period, the animals were quarantined, examined for general conditions, and weighed. Animals showing no abnormalities were selected and randomly allocated to five groups for urine collection each comprising four males.
The animals were individually housed in wire-net-based metal cages, and the individual cages were placed on water-washable rack in a clean booth as randomized for the animal groups. Animal room environmental conditions comprised a room temperature of 20 to 26° C., a relative humidity of 40 to 70%, and a fresh air ventilation frequency of 8 to 25 times/hour, with a bright phase of 12 hours/day (lighting time: 7:00 am to 7:00 pm). The animals were fed a γ-ray-irradiated powder food (CR-LPF, Oriental Yeast Co., Ltd.) and had free access to the food along with tap water.
A dispersant/medium was added to each test material, and the mixture was stirred to prepare dosing suspensions.
Each test material was administered by gavage at a dosing suspension volume of 10 mL/kg/day once daily for 7 days.
After completion of the administration, pooled urine was collected with ice cooling from all animals under fasting and water denial for about 6 hours. […]
Quantitative analyses of rat urinary hippuric acid and PAG by LC-MS/MS were performed as described below. […]

[5] = cited from earlier work
Crj: CD(SD)IGS rats [6] = conditions: rat, gavage once daily for 3 days; printed on the line of the lowest dose, dose group unclear
Procedure: Each test drug was administered by gavage at a dosing liquid volume of 10 mL/kg/day once daily for 3 days (4 days for the negative control). The animals were examined for mortality, general conditions, body weight, food consumption and the like using PM4800 (Mettler) and EB3200D (Shimadzu Corporation).

[7] = from Summary Basis of Approval (FDA), species and route not given

CCN(CC)CCCC(C)Nc1c2ccc(Cl)cc2nc2ccc(OC)cc12 (centres unmarked) [Quinacrine, quinacrine]
Mean vacuolated lymphocyte ratio (Crj: CD(SD)IGS rats [1]; 60 mg/kg/day): 14%
Mean vacuolated lymphocyte ratio (Crj: CD(SD)IGS rats [1]; 200 mg/kg/day): 32%
Mean vacuolated lymphocyte ratio (Crj: CD(SD)IGS rats [1]; 600 mg/kg/day): 52%
Histopathological changes (PLsis): Liver (Crj: CD(SD)IGS rats [2]; 60 mg/kg/day): +
Histopathological changes (PLsis): Lung (Crj: CD(SD)IGS rats [2]; 60 mg/kg/day): +
Histopathological changes (PLsis): Lymph node (Crj: CD(SD)IGS rats [2]; 60 mg/kg/day): −
Histopathological changes (PLsis): Others (Crj: CD(SD)IGS rats [2]; 60 mg/kg/day): −
Histopathological changes (PLsis): Spleen (Crj: CD(SD)IGS rats [2]; 60 mg/kg/day): −
Histopathological changes (PLsis): Liver (Crj: CD(SD)IGS rats [2]; 200 mg/kg/day): +
Histopathological changes (PLsis): Lung (Crj: CD(SD)IGS rats [2]; 200 mg/kg/day): +
Histopathological changes (PLsis): Lymph node (Crj: CD(SD)IGS rats [2]; 200 mg/kg/day): +
Histopathological changes (PLsis): Others (Crj: CD(SD)IGS rats [2]; 200 mg/kg/day): −
Histopathological changes (PLsis): Spleen (Crj: CD(SD)IGS rats [2]; 200 mg/kg/day): −
Histopathological changes (PLsis): Liver (Crj: CD(SD)IGS rats [2]; 600 mg/kg/day): +
Histopathological changes (PLsis): Lung (Crj: CD(SD)IGS rats [2]; 600 mg/kg/day): +
Histopathological changes (PLsis): Lymph node (Crj: CD(SD)IGS rats [2]; 600 mg/kg/day): +
Histopathological changes (PLsis): Others (Crj: CD(SD)IGS rats [2]; 600 mg/kg/day): −
Histopathological changes (PLsis): Spleen (Crj: CD(SD)IGS rats [2]; 600 mg/kg/day): −
PAG + hippuric acid/creatinine (Crj: CD(SD)IGS rats [3]; 60 mg/kg/day by gavage): 1.45
PAG/PAG + hippuric acid (Crj: CD(SD)IGS rats [3]; 60 mg/kg/day by gavage): 21.82* %
PAG/creatinine (first term of PAG + hippuric acid) (Crj: CD(SD)IGS rats [3]; 60 mg/kg/day by gavage): 0.32
PAG/hippuric acid (Crj: CD(SD)IGS rats [3]; 60 mg/kg/day by gavage): 28.35* %
hippuric acid/creatinine (second term of PAG + hippuric acid) (Crj: CD(SD)IGS rats [3]; 60 mg/kg/day by gavage): 1.13
PAG + hippuric acid/creatinine (Crj: CD(SD)IGS rats [3]; 200 mg/kg/day by gavage): 1.58
PAG/PAG + hippuric acid (Crj: CD(SD)IGS rats [3]; 200 mg/kg/day by gavage): 46.42* %
PAG/creatinine (first term of PAG + hippuric acid) (Crj: CD(SD)IGS rats [3]; 200 mg/kg/day by gavage): 0.75
PAG/hippuric acid (Crj: CD(SD)IGS rats [3]; 200 mg/kg/day by gavage): 91.89* %
hippuric acid/creatinine (second term of PAG + hippuric acid) (Crj: CD(SD)IGS rats [3]; 200 mg/kg/day by gavage): 0.83
PAG + hippuric acid/creatinine (Crj: CD(SD)IGS rats [3]; 600 mg/kg/day by gavage): 1.07*
PAG/PAG + hippuric acid (Crj: CD(SD)IGS rats [3]; 600 mg/kg/day by gavage): 78.62* %
PAG/creatinine (first term of PAG + hippuric acid) (Crj: CD(SD)IGS rats [3]; 600 mg/kg/day by gavage): 0.83
PAG/hippuric acid (Crj: CD(SD)IGS rats [3]; 600 mg/kg/day by gavage): 441.69* %
hippuric acid/creatinine (second term of PAG + hippuric acid) (Crj: CD(SD)IGS rats [3]; 600 mg/kg/day by gavage): 0.24
PAG/hippuric acid concentration ratio compared to the control group (Crj: CD(SD)IGS rats [4]): increased
PAG/hippuric acid ratio (Crj: CD(SD)IGS rats [4]; mean ± SD n = 4): 0.2178 ± 0.0919
LD50 [5, 7]: 900 mg/kg

CN(C)CCCN1c2ccccc2Sc2ccc(Cl)cc21 [Chlorpromazine, chlorpromazine]
Mean vacuolated lymphocyte ratio (Crj: CD(SD)IGS rats [1]; 100 mg/kg/day): 2%
Mean vacuolated lymphocyte ratio (Crj: CD(SD)IGS rats [1]; 300 mg/kg/day): 2%
Mean vacuolated lymphocyte ratio (Crj: CD(SD)IGS rats [1]; 1000 mg/kg/day): 1%
PLsis positivity by histopathological examination or vacuolated lymphocyte testing (Crj: CD(SD)IGS rats [2]): could not be determined
Histopathological changes (PLsis): Liver (Crj: CD(SD)IGS rats [2]; 100 mg/kg/day): −
Histopathological changes (PLsis): Lung (Crj: CD(SD)IGS rats [2]; 100 mg/kg/day): −
Histopathological changes (PLsis): Lymph node (Crj: CD(SD)IGS rats [2]; 100 mg/kg/day): −
Histopathological changes (PLsis): Others (Crj: CD(SD)IGS rats [2]; 100 mg/kg/day): −
Histopathological changes (PLsis): Spleen (Crj: CD(SD)IGS rats [2]; 100 mg/kg/day): −
Histopathological changes (PLsis): Liver (Crj: CD(SD)IGS rats [2]; 300 mg/kg/day): −
Histopathological changes (PLsis): Lung (Crj: CD(SD)IGS rats [2]; 300 mg/kg/day): −
Histopathological changes (PLsis): Lymph node (Crj: CD(SD)IGS rats [2]; 300 mg/kg/day): −
Histopathological changes (PLsis): Others (Crj: CD(SD)IGS rats [2]; 300 mg/kg/day): −
Histopathological changes (PLsis): Spleen (Crj: CD(SD)IGS rats [2]; 300 mg/kg/day): −
Histopathological changes (PLsis): Liver (Crj: CD(SD)IGS rats [2]; 1000 mg/kg/day): −
Histopathological changes (PLsis): Lung (Crj: CD(SD)IGS rats [2]; 1000 mg/kg/day): −
Histopathological changes (PLsis): Lymph node (Crj: CD(SD)IGS rats [2]; 1000 mg/kg/day): −
Histopathological changes (PLsis): Others (Crj: CD(SD)IGS rats [2]; 1000 mg/kg/day): −
Histopathological changes (PLsis): Spleen (Crj: CD(SD)IGS rats [2]; 1000 mg/kg/day): −
PAG + hippuric acid/creatinine (Crj: CD(SD)IGS rats [3]; 100 mg/kg/day by gavage): 1.45
PAG/PAG + hippuric acid (Crj: CD(SD)IGS rats [3]; 100 mg/kg/day by gavage): 12.80%
PAG/creatinine (first term of PAG + hippuric acid) (Crj: CD(SD)IGS rats [3]; 100 mg/kg/day by gavage): 0.18
PAG/hippuric acid (Crj: CD(SD)IGS rats [3]; 100 mg/kg/day by gavage): 14.93%
hippuric acid/creatinine (second term of PAG + hippuric acid) (Crj: CD(SD)IGS rats [3]; 100 mg/kg/day by gavage): 1.27
PAG + hippuric acid/creatinine (Crj: CD(SD)IGS rats [3]; 300 mg/kg/day by gavage): 1.63
PAG/PAG + hippuric acid (Crj: CD(SD)IGS rats [3]; 300 mg/kg/day by gavage): 12.57%
PAG/creatinine (first term of PAG + hippuric acid) (Crj: CD(SD)IGS rats [3]; 300 mg/kg/day by gavage): 0.21
PAG/hippuric acid (Crj: CD(SD)IGS rats [3]; 300 mg/kg/day by gavage): 14.51%
PAG + hippuric acid/creatinine (Crj: CD(SD)IGS rats [3]; 1000 mg/kg/day by gavage): 0.86*
PAG/PAG + hippuric acid (Crj: CD(SD)IGS rats [3]; 1000 mg/kg/day by gavage): 42.20* %
PAG/creatinine (first term of PAG + hippuric acid) (Crj: CD(SD)IGS rats [3]; 1000 mg/kg/day by gavage): 0.30
PAG/hippuric acid (Crj: CD(SD)IGS rats [3]; 1000 mg/kg/day by gavage): 104.13* %
hippuric acid/creatinine (second term of PAG + hippuric acid) (Crj: CD(SD)IGS rats [3]; 1000 mg/kg/day by gavage): 0.56
PAG/hippuric acid ratio or PAG/(PAG+hippuric acid) ratio (Crj: CD(SD)IGS rats [3]; high-dose administration group, 3-day administration): remarkable increase
LD50 [5, 7]: 145 mg/kg

CN(C)CCCN1c2ccccc2CCc2ccc(Cl)cc21 [Clomipramine, clomipramine]
Mean vacuolated lymphocyte ratio (Crj: CD(SD)IGS rats [1]; 100 mg/kg/day): 2%
Mean vacuolated lymphocyte ratio (Crj: CD(SD)IGS rats [1]; 300 mg/kg/day): 30%
Mean vacuolated lymphocyte ratio (Crj: CD(SD)IGS rats [1]; 1000 mg/kg/day): 38%
death (note beside the dose) (Crj: CD(SD)IGS rats [6]): (death)
Histopathological changes (PLsis): Liver (Crj: CD(SD)IGS rats [2]; 100 mg/kg/day): −
Histopathological changes (PLsis): Lung (Crj: CD(SD)IGS rats [2]; 100 mg/kg/day): −
Histopathological changes (PLsis): Lymph node (Crj: CD(SD)IGS rats [2]; 100 mg/kg/day): −
Histopathological changes (PLsis): Others (Crj: CD(SD)IGS rats [2]; 100 mg/kg/day): −
Histopathological changes (PLsis): Spleen (Crj: CD(SD)IGS rats [2]; 100 mg/kg/day): −
Histopathological changes (PLsis): Liver (Crj: CD(SD)IGS rats [2]; 300 mg/kg/day): −
Histopathological changes (PLsis): Lung (Crj: CD(SD)IGS rats [2]; 300 mg/kg/day): +
Histopathological changes (PLsis): Lymph node (Crj: CD(SD)IGS rats [2]; 300 mg/kg/day): +
Histopathological changes (PLsis): Others (Crj: CD(SD)IGS rats [2]; 300 mg/kg/day): −
Histopathological changes (PLsis): Spleen (Crj: CD(SD)IGS rats [2]; 300 mg/kg/day): −
Histopathological changes (PLsis): Liver (Crj: CD(SD)IGS rats [2]; 1000 mg/kg/day): +
Histopathological changes (PLsis): Lung (Crj: CD(SD)IGS rats [2]; 1000 mg/kg/day): −
Histopathological changes (PLsis): Lymph node (Crj: CD(SD)IGS rats [2]; 1000 mg/kg/day): +
Histopathological changes (PLsis): Others (Crj: CD(SD)IGS rats [2]; 1000 mg/kg/day): Kidney
Histopathological changes (PLsis): Spleen (Crj: CD(SD)IGS rats [2]; 1000 mg/kg/day): −
PAG + hippuric acid/creatinine (Crj: CD(SD)IGS rats [3]; 100 mg/kg/day by gavage): 1.42
PAG/PAG + hippuric acid (Crj: CD(SD)IGS rats [3]; 100 mg/kg/day by gavage): 14.27%
PAG/creatinine (first term of PAG + hippuric acid) (Crj: CD(SD)IGS rats [3]; 100 mg/kg/day by gavage): 0.20
PAG/hippuric acid (Crj: CD(SD)IGS rats [3]; 100 mg/kg/day by gavage): 16.79%
hippuric acid/creatinine (second term of PAG + hippuric acid) (Crj: CD(SD)IGS rats [3]; 100 mg/kg/day by gavage): 1.22
PAG + hippuric acid/creatinine (Crj: CD(SD)IGS rats [3]; 300 mg/kg/day by gavage): 0.74*
PAG/PAG + hippuric acid (Crj: CD(SD)IGS rats [3]; 300 mg/kg/day by gavage): 33.36* %
PAG/creatinine (first term of PAG + hippuric acid) (Crj: CD(SD)IGS rats [3]; 300 mg/kg/day by gavage): 0.20
PAG/hippuric acid (Crj: CD(SD)IGS rats [3]; 300 mg/kg/day by gavage): 62.72* %
hippuric acid/creatinine (second term of PAG + hippuric acid) (Crj: CD(SD)IGS rats [3]; 300 mg/kg/day by gavage): 0.52
LD50 ([5]; in vivo): 914 mg/kg
